For orientation: efflux ratio means a quotient of directional permeabilities that is used to spot active efflux. For orientation: Kp means the ratio of the level in a tissue or fluid to that in plasma or blood. As a reminder, the inhibition is the relative decrease from the control value, in per cent.

The results in this text go back to ChEMBL document CHEMBL3632469, “Discovery of dihydroquinazolinone derivatives as potent, selective, and CNS-penetrant M(1) and M(4) muscarinic acetylcholine receptors agonists” (Bioorg Med Chem Lett, 2015).

The target of series [1] is T1, Muscarinic acetylcholine receptor M2 (Homo sapiens) (UniProt P08172).
T1 sequence (whole entry): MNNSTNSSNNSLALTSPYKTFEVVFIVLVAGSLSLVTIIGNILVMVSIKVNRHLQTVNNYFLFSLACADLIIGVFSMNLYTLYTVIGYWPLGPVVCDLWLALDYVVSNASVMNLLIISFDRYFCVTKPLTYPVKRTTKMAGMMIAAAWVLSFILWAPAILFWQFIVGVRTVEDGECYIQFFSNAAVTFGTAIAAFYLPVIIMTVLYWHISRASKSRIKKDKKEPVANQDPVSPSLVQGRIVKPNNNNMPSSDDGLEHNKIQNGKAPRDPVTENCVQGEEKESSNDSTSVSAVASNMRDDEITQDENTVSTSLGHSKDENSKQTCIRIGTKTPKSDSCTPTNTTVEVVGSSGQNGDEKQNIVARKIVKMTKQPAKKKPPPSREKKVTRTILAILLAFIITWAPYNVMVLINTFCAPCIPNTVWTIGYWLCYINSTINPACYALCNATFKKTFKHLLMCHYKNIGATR
The experiment in a line: Agonist activity at human muscarinic M2 acetylcholine receptor expressed in CHO cells co-expressing Galpha16 assessed as calcium mobilization at 0.3 uM by FLIPR assay. The format is functional, cell-based.

Series [2] deals with T2, Muscarinic acetylcholine receptor M4 (Homo sapiens) (UniProt P08173).
T2 sequence (whole entry): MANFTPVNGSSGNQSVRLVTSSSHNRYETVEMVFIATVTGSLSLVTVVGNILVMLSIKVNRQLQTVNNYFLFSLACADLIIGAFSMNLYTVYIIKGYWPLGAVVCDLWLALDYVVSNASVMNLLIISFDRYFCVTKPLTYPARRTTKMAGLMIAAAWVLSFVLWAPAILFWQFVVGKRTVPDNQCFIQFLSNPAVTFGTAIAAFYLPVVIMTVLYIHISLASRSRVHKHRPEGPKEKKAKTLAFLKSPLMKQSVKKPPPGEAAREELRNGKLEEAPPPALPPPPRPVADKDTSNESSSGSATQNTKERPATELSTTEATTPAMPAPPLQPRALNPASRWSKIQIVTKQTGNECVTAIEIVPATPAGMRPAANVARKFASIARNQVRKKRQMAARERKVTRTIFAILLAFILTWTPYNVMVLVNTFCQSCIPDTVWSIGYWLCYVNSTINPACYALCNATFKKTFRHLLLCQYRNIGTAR
Description: Partial agonist activity at human muscarinic M4 acetylcholine receptor expressed in CHO cells co-expressing Galpha16 assessed as calcium mobilization at 0.3 uM by FLIPR assay. The format is functional, cell-based. Background: Calcium flux is commonly read through the fluorescence of an indicator in the cells.

The target of series [3] is T3, Muscarinic acetylcholine receptor M5 (Homo sapiens) (UniProt P08912).
T3 sequence (whole entry): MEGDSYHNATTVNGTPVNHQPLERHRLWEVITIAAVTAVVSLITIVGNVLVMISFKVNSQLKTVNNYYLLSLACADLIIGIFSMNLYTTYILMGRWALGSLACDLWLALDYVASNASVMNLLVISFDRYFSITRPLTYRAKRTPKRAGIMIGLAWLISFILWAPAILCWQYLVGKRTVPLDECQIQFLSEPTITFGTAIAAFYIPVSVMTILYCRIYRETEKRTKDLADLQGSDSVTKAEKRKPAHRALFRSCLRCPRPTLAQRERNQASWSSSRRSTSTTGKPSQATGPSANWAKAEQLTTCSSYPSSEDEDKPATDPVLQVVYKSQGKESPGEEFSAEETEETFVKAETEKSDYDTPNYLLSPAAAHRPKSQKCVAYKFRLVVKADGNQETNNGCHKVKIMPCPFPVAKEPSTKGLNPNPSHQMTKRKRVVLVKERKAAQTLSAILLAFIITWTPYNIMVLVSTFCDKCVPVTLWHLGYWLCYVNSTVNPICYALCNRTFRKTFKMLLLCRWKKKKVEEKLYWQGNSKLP
Description: Agonist activity at human muscarinic M5 acetylcholine receptor expressed in CHO cells assessed as calcium mobilization at 30 uM by FLIPR assay. The series is classed as functional, cell-based.

The test system of another series is P-glycoprotein. Description: Binding affinity to p-glycoprotein (unknown origin) assessed as efflux ratio by cell based assay. The note with it: human, not told. The format is ADME.
The nature of series [4]: Ratio of drug level in brain to blood in rat. The series is classed as ADME, tissue-based.
The target of series [5] is Adenosine receptor A3 (Homo sapiens) (UniProt P0DMS8). Description: Agonist activity at adenosine a3 receptor (unknown origin) expressed in CHO cells assessed as calcium mobilization at 3 uM. The format is functional, cell-based.
For series [6], the target named is Adrenergic receptor alpha-1 (Homo sapiens) (UniProt P35348+P25100+P35368). Description: Agonist activity at adrenergic a1 receptor (unknown origin) expressed in CHO cells assessed as calcium mobilization at 3 uM. The format is functional, cell-based.
Series [7] addresses D(3) dopamine receptor (Homo sapiens) (UniProt P35462). The experiment in a line: Agonist activity at dopamine D3L receptor (unknown origin) expressed in CHO cells assessed as calcium mobilization at 3 uM. The series is classed as functional, cell-based.
Series [8] deals with Histamine H2 receptor (Homo sapiens) (UniProt P25021). Description: Agonist activity at histamine H2 receptor (unknown origin) expressed in CHO cells assessed as calcium mobilization at 3 uM. The series is classed as functional, cell-based.
Series [9] deals with Cysteinyl leukotriene receptor 2 (Homo sapiens) (UniProt Q9NS75). Description: Agonist activity at CysLT2 receptor (unknown origin) expressed in CHO cells assessed as calcium mobilization at 3 uM. The series is classed as functional, cell-based.
Series [10] has as its target Substance-P receptor (Homo sapiens) (UniProt P25103). Description: Agonist activity at TaCR1 receptor (unknown origin) expressed in CHO cells assessed as calcium mobilization at 3 uM. The series is classed as functional, cell-based.
Series [11] concerns the target Nociceptin receptor (Homo sapiens) (UniProt P41146). Description: Agonist activity at OPRL1 receptor (unknown origin) expressed in CHO cells assessed as calcium mobilization at 3 uM. The format is functional, cell-based.
Series [12] concerns the target 5-hydroxytryptamine receptor 1E (Homo sapiens) (UniProt P28566). The experiment in a line: Agonist activity at 5-HT1E receptor (unknown origin) expressed in CHO cells assessed as calcium mobilization at 3 uM. The series is classed as functional, cell-based.
Series [13] concerns the target 5-hydroxytryptamine receptor 7 (Homo sapiens) (UniProt P34969). The experiment in a line: Agonist activity at 5-HT7B receptor (unknown origin) expressed in CHO cells assessed as calcium mobilization at 3 uM. The series is classed as functional, cell-based.
The target in series [14] is Alpha-2C adrenergic receptor (Homo sapiens) (UniProt P18825). Description: Antagonist activity at adrenergic a2C receptor (unknown origin) expressed in CHO cells assessed as calcium mobilization at 3 uM. The format is functional, cell-based.
For series [15], the target named is D(2) dopamine receptor (Homo sapiens) (UniProt P14416). The experiment in a line: Antagonist activity at dopamine D2L receptor (unknown origin) expressed in CHO cells assessed as calcium mobilization at 3 uM. The series is classed as functional, cell-based.
Series [16] concerns the target Histamine H2 receptor (Homo sapiens) (UniProt P25021). Description: Antagonist activity at histamine H2 receptor (unknown origin) expressed in CHO cells assessed as calcium mobilization at 3 uM. The format is functional, cell-based.
In series [17] the target is 5-hydroxytryptamine receptor 1F (Homo sapiens) (UniProt P30939). Description: Antagonist activity at 5-HT1F receptor (unknown origin) expressed in CHO cells assessed as calcium mobilization at 3 uM. The format is functional, cell-based.
Series [18] deals with 5-hydroxytryptamine receptor 5A (Homo sapiens) (UniProt P47898). The experiment in a line: Antagonist activity at 5-HT5a receptor (unknown origin) expressed in CHO cells assessed as calcium mobilization at 3 uM. The format is functional, cell-based.
Series [19] has as its target P2Y purinoceptor 1 (Homo sapiens) (UniProt P47900). Description: Antagonist activity at P2Y1 receptor (unknown origin) expressed in CHO cells assessed as calcium mobilization at 3 uM. The format is functional, cell-based.

Sequence of Histamine H2 receptor (Homo sapiens) (P25021 whole entry): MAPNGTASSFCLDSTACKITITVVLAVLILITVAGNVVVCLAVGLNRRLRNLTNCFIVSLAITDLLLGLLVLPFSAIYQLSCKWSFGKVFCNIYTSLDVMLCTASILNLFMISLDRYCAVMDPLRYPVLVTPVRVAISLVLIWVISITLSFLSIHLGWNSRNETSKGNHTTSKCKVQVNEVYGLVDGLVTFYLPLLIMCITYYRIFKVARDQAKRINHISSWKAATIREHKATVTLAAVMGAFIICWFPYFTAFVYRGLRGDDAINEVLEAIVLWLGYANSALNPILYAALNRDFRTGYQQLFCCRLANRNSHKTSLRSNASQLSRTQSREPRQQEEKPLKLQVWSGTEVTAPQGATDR
Sequence of D(3) dopamine receptor (Homo sapiens) (P35462 whole entry): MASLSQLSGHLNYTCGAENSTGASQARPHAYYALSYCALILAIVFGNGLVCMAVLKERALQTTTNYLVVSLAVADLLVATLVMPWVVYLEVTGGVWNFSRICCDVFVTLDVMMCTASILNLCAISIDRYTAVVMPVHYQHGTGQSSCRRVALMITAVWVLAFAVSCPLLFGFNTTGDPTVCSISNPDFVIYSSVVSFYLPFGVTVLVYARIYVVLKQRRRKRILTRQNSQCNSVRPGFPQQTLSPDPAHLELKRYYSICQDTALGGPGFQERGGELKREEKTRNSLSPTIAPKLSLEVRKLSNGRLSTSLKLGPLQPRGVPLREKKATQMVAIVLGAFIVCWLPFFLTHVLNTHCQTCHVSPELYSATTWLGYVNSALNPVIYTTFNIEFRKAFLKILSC
Sequence of Nociceptin receptor (Homo sapiens) (P41146 whole entry): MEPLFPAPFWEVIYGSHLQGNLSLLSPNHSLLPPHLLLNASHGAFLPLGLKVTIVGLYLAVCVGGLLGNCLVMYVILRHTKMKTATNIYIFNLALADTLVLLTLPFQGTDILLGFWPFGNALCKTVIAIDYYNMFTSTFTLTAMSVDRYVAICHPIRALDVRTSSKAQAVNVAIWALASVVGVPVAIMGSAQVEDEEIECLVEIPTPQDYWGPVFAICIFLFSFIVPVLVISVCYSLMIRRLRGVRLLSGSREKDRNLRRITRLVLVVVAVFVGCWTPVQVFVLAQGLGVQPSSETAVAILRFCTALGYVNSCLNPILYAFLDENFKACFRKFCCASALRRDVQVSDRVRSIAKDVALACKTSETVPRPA
Sequence of D(2) dopamine receptor (Homo sapiens) (P14416 whole entry): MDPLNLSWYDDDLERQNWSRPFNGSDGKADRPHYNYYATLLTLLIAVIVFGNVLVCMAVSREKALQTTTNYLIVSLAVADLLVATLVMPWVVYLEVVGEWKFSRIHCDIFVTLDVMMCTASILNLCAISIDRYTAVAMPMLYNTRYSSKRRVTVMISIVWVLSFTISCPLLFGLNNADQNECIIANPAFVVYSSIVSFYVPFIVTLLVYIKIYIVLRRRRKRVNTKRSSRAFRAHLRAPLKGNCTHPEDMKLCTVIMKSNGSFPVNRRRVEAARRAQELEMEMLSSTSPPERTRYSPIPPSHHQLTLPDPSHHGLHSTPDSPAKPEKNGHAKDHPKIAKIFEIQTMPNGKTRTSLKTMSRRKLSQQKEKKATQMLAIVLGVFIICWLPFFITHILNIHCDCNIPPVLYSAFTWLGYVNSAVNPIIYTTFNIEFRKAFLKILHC
Sequence of Alpha-2C adrenergic receptor (Homo sapiens) (P18825 whole entry): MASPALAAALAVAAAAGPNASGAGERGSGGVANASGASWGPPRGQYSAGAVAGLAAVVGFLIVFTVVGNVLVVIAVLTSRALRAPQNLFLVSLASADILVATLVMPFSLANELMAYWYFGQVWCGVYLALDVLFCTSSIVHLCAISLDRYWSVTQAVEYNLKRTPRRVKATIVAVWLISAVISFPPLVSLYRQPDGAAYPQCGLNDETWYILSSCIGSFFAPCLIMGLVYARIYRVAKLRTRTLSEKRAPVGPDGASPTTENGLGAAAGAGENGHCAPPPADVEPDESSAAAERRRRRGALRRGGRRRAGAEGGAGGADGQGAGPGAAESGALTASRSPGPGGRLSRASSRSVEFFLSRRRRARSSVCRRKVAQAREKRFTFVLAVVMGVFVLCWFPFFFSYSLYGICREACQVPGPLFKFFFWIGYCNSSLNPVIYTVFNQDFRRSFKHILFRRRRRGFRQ
Sequence of P2Y purinoceptor 1 (Homo sapiens) (P47900 whole entry): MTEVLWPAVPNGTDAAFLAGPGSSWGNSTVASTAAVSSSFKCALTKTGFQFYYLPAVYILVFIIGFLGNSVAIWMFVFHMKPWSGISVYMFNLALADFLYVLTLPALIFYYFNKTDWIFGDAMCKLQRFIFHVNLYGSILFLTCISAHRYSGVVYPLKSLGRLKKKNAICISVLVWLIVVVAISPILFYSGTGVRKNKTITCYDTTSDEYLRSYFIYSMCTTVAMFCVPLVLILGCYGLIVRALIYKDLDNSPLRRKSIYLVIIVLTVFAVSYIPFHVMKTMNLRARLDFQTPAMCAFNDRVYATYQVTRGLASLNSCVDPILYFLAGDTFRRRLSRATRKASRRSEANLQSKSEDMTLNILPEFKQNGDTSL
Sequence of 5-hydroxytryptamine receptor 5A (Homo sapiens) (P47898 whole entry): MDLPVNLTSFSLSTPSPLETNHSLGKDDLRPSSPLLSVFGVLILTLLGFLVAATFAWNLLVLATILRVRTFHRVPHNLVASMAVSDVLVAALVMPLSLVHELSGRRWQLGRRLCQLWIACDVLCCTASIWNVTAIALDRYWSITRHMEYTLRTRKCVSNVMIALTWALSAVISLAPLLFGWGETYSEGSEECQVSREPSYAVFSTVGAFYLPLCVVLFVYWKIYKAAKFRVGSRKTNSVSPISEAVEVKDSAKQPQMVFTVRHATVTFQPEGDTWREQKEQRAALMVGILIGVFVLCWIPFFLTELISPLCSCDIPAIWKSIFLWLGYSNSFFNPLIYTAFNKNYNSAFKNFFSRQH
Sequence of 5-hydroxytryptamine receptor 1F (Homo sapiens) (P30939 whole entry): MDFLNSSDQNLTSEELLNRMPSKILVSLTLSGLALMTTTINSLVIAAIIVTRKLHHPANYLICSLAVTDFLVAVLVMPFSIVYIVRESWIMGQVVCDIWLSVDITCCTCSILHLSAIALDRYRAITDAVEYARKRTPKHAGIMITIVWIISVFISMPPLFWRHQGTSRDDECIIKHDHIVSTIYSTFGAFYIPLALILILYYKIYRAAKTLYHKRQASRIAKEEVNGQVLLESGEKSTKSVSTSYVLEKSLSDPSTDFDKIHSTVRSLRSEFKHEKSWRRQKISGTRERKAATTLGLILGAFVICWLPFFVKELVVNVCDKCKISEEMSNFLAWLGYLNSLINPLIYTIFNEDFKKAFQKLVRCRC
Sequence of 5-hydroxytryptamine receptor 1E (Homo sapiens) (P28566 whole entry): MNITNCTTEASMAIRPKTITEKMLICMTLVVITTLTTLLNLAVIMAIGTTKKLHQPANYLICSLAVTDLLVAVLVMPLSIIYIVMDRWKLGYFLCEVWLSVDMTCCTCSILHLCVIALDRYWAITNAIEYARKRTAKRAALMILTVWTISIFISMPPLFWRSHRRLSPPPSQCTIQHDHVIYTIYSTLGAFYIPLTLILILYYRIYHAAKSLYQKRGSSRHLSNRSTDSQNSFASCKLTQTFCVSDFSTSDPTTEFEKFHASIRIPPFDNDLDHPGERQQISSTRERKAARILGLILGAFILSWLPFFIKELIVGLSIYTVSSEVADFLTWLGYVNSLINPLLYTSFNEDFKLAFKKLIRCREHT
Sequence of 5-hydroxytryptamine receptor 7 (Homo sapiens) (P34969 whole entry): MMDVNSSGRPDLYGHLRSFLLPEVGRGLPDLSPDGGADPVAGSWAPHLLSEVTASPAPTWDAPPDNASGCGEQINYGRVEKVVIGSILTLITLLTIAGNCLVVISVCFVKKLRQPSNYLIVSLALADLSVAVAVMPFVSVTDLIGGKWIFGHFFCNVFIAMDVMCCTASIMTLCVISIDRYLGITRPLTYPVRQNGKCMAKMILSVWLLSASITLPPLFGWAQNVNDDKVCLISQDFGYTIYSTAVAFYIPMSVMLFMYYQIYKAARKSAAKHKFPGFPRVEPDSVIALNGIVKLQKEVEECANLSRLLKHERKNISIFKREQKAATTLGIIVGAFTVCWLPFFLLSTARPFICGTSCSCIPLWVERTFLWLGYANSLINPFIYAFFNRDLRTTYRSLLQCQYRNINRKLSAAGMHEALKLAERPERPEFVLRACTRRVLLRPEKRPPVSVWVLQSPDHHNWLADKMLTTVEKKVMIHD
Sequence of Adenosine receptor A3 (Homo sapiens) (P0DMS8 whole entry): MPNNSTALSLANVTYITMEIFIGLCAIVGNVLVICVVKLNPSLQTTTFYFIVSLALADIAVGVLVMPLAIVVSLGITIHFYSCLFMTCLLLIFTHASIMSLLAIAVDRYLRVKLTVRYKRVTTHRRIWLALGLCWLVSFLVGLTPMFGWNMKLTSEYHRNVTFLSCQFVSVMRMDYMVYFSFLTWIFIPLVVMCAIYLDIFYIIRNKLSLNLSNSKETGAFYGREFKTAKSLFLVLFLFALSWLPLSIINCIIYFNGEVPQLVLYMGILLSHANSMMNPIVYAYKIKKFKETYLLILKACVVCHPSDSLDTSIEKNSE
Sequence of Substance-P receptor (Homo sapiens) (P25103 whole entry): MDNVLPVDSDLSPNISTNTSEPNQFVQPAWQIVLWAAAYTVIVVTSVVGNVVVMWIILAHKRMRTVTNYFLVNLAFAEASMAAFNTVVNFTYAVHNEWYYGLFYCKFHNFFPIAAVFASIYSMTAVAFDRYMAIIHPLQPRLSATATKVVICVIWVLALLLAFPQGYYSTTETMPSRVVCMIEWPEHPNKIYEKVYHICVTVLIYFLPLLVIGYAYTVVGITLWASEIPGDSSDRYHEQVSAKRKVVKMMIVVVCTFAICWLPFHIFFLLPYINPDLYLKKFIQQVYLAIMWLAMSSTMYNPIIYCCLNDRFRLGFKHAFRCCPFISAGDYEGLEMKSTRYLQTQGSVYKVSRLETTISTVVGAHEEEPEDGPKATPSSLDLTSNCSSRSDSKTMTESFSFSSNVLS

With `CCOC(=O)N1[C@@H]2CC[C@H]1C[C@H](CN1CC[C@@H](N3Cc4ccccc4NC3=O)C1)C2`, the Activity was 1% in [1]; 49% in series [2]; 3% in series [3]; 1.07% in series [5]; -0.04% in [6]; -2.42% in series [7]. Moreover, the Activity was -0.83% in series [8]; 0.03% in [9]; -0.13% in series [10]; 0.23% in series [11]; 0.11% in series [12]; -1.12% in [13]. In addition, in the series with P-glycoprotein, the efflux ratio came out at 1. The Kp in series [4] stood at 2.42. Besides, the inhibition was 6.45% in [14]; 13.2% in series [15]; 5.27% in series [16]; 1.04% in series [17]; 0.91% in [18]; -8.79% in series [19].
